Measured values as given in patent publication US6706686B2, “Inhibition of histone deacetylase as a treatment for cardiac hypertrophy” (The Regents of the University of Colorado, priority 2001, dated 2004).
Entries after “also recorded” stand apart in the source; their conditions may differ.

Legend:
[1] = test system: ANF, αSK-actin, αMyHC, βMyHC RNA in cardiomyocytes; test: RNA dot blot of fetal gene program; assay type: cell-based, rat; details: phenylephrine 100 μM, TSA 85 nM, sodium butyrate 5 mM, HC-toxin 5 ng/ml
Experimental: FIGS. 5A-B. Treatment of cardiomyocytes with HDAC inhibitors blocks the fetal gene program associated with cardiomyocyte hypertrophy. […] The graphs represent three or more independent experiments.
Dot Blot analysis. Total RNA was isolated from cardiomyocytes that were either untreated, treated with phenylephrine, treated with TSA, or co-treated with phenylephrine and TSA. One microgram of RNA was blotted onto Nitrocellulose (Bio-Rad, Hercules, Calif.) and hybridized at 50° C. for 14 hrs with end-labeled oligos. (ANF, 5′-[…]-3, SEQ ID NO 1; αSK actin5′-[…]-3′, SEQ ID NO2; αMyHC,5′[…]-3′, SEQ ID NO 3; βMyHC5′-[…]-3′, SEQ ID NO 4; GAPDH5′-[…]-3′, SEQ ID NO 5). The blots were washed twice in 2×SSC/0.5% SDS solution and exposed to film (Kodak, Rochester, N.Y.) or phosphoimager (Amersham Bioscience, Sunnyvale, Calif.). The intensity of the hybridization of the probes was measured using ImageQuant® (Amersham Bioscience, Sunnyvale, Calif.).

[2] = test system: ANF promoter in neonatal rat cardiomyocytes; test: ANF promoter transcription (luciferase) assay; assay type: cell-based; details: for activation of ANF promoter by phenylephrine: phenylephrine 100 μM, TSA 85 nM, NaBut 5 mM, HC-toxin 5 ng/ml; for ANF promoter activity, inhibitor alone: unstimulated cardiomyocytes
Experimental: (§1) FIGS. 3A-D. HDAC inhibitors block the activation of ANF reporter by phenylphrine without cytotoxicity. Neonatal rat cardiomyocytes were co-transfected with a total of 1 μg of the mouse 3 kb ANF promoter fragment and CMV-Lac Z plasmids. (FIG. 3A) The ANF promoter is minimally active in unstimulated cardiomyocytes. […] (FIG. 3B) Lac Z expression by the constitutive promoter CMV. Treatment with HDAC inhibitors augmented CMV activity with and without phenylephrine co-treatment. (FIGS. 3C and 3D) The graphs show the measurements of adenylate kinase activity remains constant in the medium after […] of culturing cardiomyocytes in the absence or presence of hypertrophic stimulants FBS, PE or ET-1.
Cardiomyocyte isolation. Hearts were harvested from 15-day timed-pregnant female Sprague-Dawley rats (Harlan, Houston, Tex.). After mincing in phosphate-buffered saline, cardiomyocytes were isolated from successive digestion fractions of 0.1% (w/v) Pancreatin (Sigma, St. Louis, Mo.) solution. Fractions were collected; resuspended in plating medium, pooled; and then plated for 2 hours to separate fibroblasts from cardiomyocyte population. Suspended cells were recollected and plated in 6-well dishes at 1×10^6 cells/well for transfection and immunofluorescence experiments, and 2×10^6 cells in 10 cm dishes for RNA analysis.
(§2) Transcription assay. Twenty-four hours after plating, cells were transfected with total of 1 μg/ml for 5 hrs using Lipofectamine Plus reagent (Invitrogen, Carlsbad, Calif.). Transfected cells were incubated 24 hrs then treated for an additional 24 hrs. Cells were lysed and their lysates assayed with the Luciferase Assay System (Promega, Madison, Wis.) for luminescence using Lucysoft 2 luminometer (Rosys Anthos, New Castle, Del.).

[3] = test system: CMV-Lac Z reporter in neonatal rat cardiomyocytes; test: CMV-Lac Z reporter (specificity control); assay type: cell-based; details: inhibitor alone or together with phenylephrine
Experimental: as §1, §2

[4] = test system: cardiomyocytes; test: Protein synthesis (tritiated leucine, S6 ribosomal protein); assay type: cell-based, rat
Experimental: FIG. 6. The effects of TSA treatment on the reorganization of the sarcomeres and protein synthesis. […] The graphs on the right show the content of S6 ribosome protein in cardiomyocytes after 24 hours co-treatment with PE and increasing concentrations of TSA or with serum and increasing concentrations of TSA.
Protein synthesis. Cardiomyocytes were incubated with (1.0 μCi/ml; 172 Ci/mmol sp. activity) tritiated-leucine (ICN Biochemicals, Inc., Irvine, Calif.) in treated RPMI media (Invitrogen, Carlsbad, Calif.). After 6 hrs incubation, the cells were washed twice with 1× PBS, then incubated in 10% TCA on ice for 30 min. Afterwards, the cells were washed twice with 5% TCA, once with water, and then lysed in […]. Lysates were measured in one-sixth volume of scintillation fluid by a scintillation counter (Beckman, Fullerton, Calif.).
S6 Ribosomal protocol. After blocking, cells were incubated in 1% BSA/1× PBS containing 50 μg/ml anti-S6 protein (Cell Signaling, […]) for 1 hr. After washing, the cells were incubated with IgG-HRP (Jackson Labs, […]) at a 1:400 dilution. The cells were then washed twice in 1% BSA/1× PBS, in 1× PBS, then blotted dry. Luminol (Pierce, Rockford, Ill.) was added and the chemiluminescence was detected in a Fusion reader (Perkin-Elmer/Packard).

[5] = test system: cultured cardiomyocytes; test: Adenylate kinase release cytotoxicity assay; assay type: cell-based; details: increasing doses: TSA up to 100 nM, sodium butyrate up to 25 nM
Experimental: as §1
Inventors then examined whether increasing doses of TSA and sodium butyrate were cytotoxic to cultured cardiomyocytes. To determine cell mortality, the release of adenylate kinase from cardiomyocytes into the culture medium was assayed. This assay is a known measurement for the integrity of the cell membrane: membranes become permeable in dying cells causing the cells release adenylate kinase.

[6] = test system: ANF in neonatal cardiomyocytes; test: ANF chemiluminescence detection, dose response; assay type: cell-based, rat
Experimental: FIGS. 4A-C. […] As in the transfection experiments, phenylephrine (100 µM) induces ANF expression over three-fold. […] (FIGS. 4B and 4C) The graphs show a reduction of the chemiluminent detection of ANF in the culture medium with increasing concentrations of the HDAC inhibitors TSA (FIG. 4B) and sodium butyrate (FIG. 4C) when co-cultured with the hypertrophic stimulants FBS, PE or ET-1.
Chemilumenescence. Neonatal cardiomyocytes were seeded onto 96-well plates and treated for 72 hrs. The cells were washed twice in 1×PBS, fixed in 4% paraformaldehyde/1×PBS, and permeabilized with 0.1% Triton-X100. After blocking, the cells were incubated 1 hr. with 10 μg/ml monoclonal anti-ANF antibody (Biodesign). The wells were washed twice with 1% BSA/1× PBS and then incubated for 1 hr. with goat anti-mouse IgG-Fc-HRP (Jackson Labs, […]) at 1:1000 in 1× PBS/1% BSA. Cells were washed twice with 1% BSA/1×PBS, twice with 1× PBS, then blotted dry. Luminol (Pierce, Rockford, Ill.) was added and the chemiluminescence was detected in a Fusion Plate Reader (Perkin Elmer/Packard).

[7] = test system: HDAC; details: Marks et al. (2000); cited from earlier work
[8] = test system: transformed cells; details: Marks et al. (2000); cited from earlier work

| SMILES | phenylephrine-induced endogenous ANF RNA expression [1] | activation of ANF promoter by phenylephrine [2] | ANF promoter activity, inhibitor alone [2] | transcriptional activity of CMV-Lac Z reporter [3] | effect on transformed cells [8] | other results |
| --- | --- | --- | --- | --- | --- | --- |
| C[C@@H]1NC(=O)[C@H]2CCCN2C(=O)[C@H](CCCCCC(=O)[C@@H]2CO2)NC(=O)[C@@H](C)NC1=O [HC-toxin] | prevented the phenylephrine-induced ANF response; also recorded: blocks the accumulation of ANF message | did block the promoter's activation by phenylephrine treatment completely; also recorded: prevented the activation of the ANF promoter | did not activate the ANF promoter | increased the transcriptional activity of the CMV-Lac Z reporter |  |  |
| CCCC(=O)[O-].[Na+] [sodium butyrate] | blocks the accumulation of ANF message | did block the promoter's activation by phenylephrine treatment completely | did not activate the ANF promoter | increased the transcriptional activity of the CMV-Lac Z reporter |  | phenylephrine-stimulated protein synthesis, 6 hours ([4]; 6 hours co-culture with phenylephrine): had little effect on the stimulation of protein synthesis; protein synthesis induced by PE or serum, 24 hrs ([4]; 24 hrs co-treatment): antagonized the protein synthesis normally induced by PE or serum in a dose-dependent manner; phenylephrine-induced endogenous ANF RNA expression ([1]; listed as NaBut): prevented the phenylephrine-induced ANF response; adenylate kinase in the culture medium (cell death) [5]: did little to increase adenylate kinase; activation of ANF promoter by phenylephrine ([2]; listed as NaBut): prevented the activation of the ANF promoter; minimal concentration that inhibited the hypertrophic response (ANF) of each growth stimulant ([6]; FBS, PE, ET-1): 5 mM; induction of ANF expression by FBS, PE and ET-1 ([6]; increasing concentrations): countered the induction of ANF expression; ANF expression at very low doses ([6]; very low doses (0.2 nM printed for sodium butyrate)): near two-fold increase |
| O=C(CCCCCCC(=O)Nc1cccnc1)NO [pyroxamide, suberoyl-3-aminopyridineamide hydroxyamic acid] |  |  |  |  | induce growth arrest, differentiation, or apoptotic cell death of transformed cells | inhibition of HDAC [7]: potent inhibitors of HDAC in vitro and in vivo |
| O=C(CCCCCCC(=O)Nc1ccccc1)NO [SAHA, suberoylanilide hydroxamic acid] |  |  |  |  | induce growth arrest, differentiation, or apoptotic cell death of transformed cells |  |
